Patent US20230348376A1 (TEIJIN PHARMA LIMITED, priority 2020, published 2023)

System: rat oligodendrocyte progenitor cells
Experiment: Promotive activity of rat oligodendrocyte progenitor cell differentiation-2 (immunostaining of MBP)
Assay type: cell-based
Conditions: vitamin D derivative 2 μM, T3 30 nM, 4 days
Experimental: The promotive activity of oligodendrocyte progenitor cell (OPC) differentiation of the vitamin D derivatives was evaluated by immunostaining of MBP.
Subsequently, oligodendrocyte progenitor cell separation medium was added to the flask, and the mixture was similarly shaken for about 22 hours (37° C., 200 rpm), and the supernatant was collected to prepare oligodendrocyte progenitor cells.

C=C1/C(=C\C=C2/CCC[C@]3(C)[C@@H]([C@H](C)CN4CCN(C)C[C@@H]4C)CC[C@@H]23)C[C@@H](O)C[C@@H]1O [Compound F011, (1R,3S,Z)-5-(2-((1R,3aS,7aR,E)-1-((S)-1-((S)-2,4-dimethylpiperazin-1-yl)propan-2-yl)-7a-methyloctahydro-4H-inden-4-ylidene)ethylidene)-4-methylenecyclohexane-1,3-diol]
Mean (number of MBP-positive cells/number of Hoechst33342-positive cells) (Test 5): 0.26

C=C1/C(=C\C=C2/CCC[C@]3(C)[C@@H]([C@H](C)CN4CCN(C)C[C@H]4C)CC[C@@H]23)C[C@@H](O)C[C@@H]1O [Compound F012, (1R,3S,Z)-5-(2-((1R,3aS,7aR,E)-1-((S)-1-((R)-2,4-dimethylpiperazin-1-yl)propan-2-yl)-7a-methyloctahydro-4H-inden-4-ylidene)ethylidene)-4-methylenecyclohexane-1,3-diol]
Mean (number of MBP-positive cells/number of Hoechst33342-positive cells) (Test 7): 0.23

C=C1/C(=C\C=C2/CCC[C@]3(C)[C@@H]([C@H](C)CN4CCC[C@@H]4C(C)(C)O)CC[C@@H]23)C[C@@H](O)C[C@@H]1O [Compound F013, (1R,3S,Z)-5-(2-((1R,3aS,7aR,E)-1-((S)-1-((R)-2-(2-hydroxypropan-2-yl)pyrrolidin-1-yl)propan-2-yl)-7a-methyloctahydro-4H-inden-4-ylidene)ethylidene)-4-methylenecyclohexane-1,3-diol]
Mean (number of MBP-positive cells/number of Hoechst33342-positive cells) (Test 9): 0.31

C=C1/C(=C\C=C2/CCC[C@]3(C)[C@@H]([C@H](C)CN4CCC[C@H]4C(C)(C)O)CC[C@@H]23)C[C@@H](O)C[C@@H]1O [Compound F014, (1R,3S,Z)-5-(2-((1R,3aS,7aR,E)-1-((S)-1-((S)-2-(2-hydroxypropan-2-yl)pyrrolidin-1-yl)propan-2-yl)-7a-methyloctahydro-4H-inden-4-ylidene)ethylidene)-4-methylenecyclohexane-1,3-diol]
Mean (number of MBP-positive cells/number of Hoechst33342-positive cells) (Test 8): 0.29

C=C1/C(=C\C=C2/CCC[C@]3(C)[C@@H]([C@H](C)CN4CCC[C@@H]4C(C)(C)OC)CC[C@@H]23)C[C@@H](O)C[C@@H]1O [Compound F015, (1R,3S,Z)-5-(2-((1R,3aS,7aR,E)-1-((S)-1-((R)-2-(2-methoxypropan-2-yl)pyrrolidin-1-yl)propan-2-yl)-7a-methyloctahydro-4H-inden-4-ylidene)ethylidene)-4-methylenecyclohexane-1,3-diol]
Mean (number of MBP-positive cells/number of Hoechst33342-positive cells) (Test 8): 0.35

C=C1/C(=C\C=C2/CCC[C@]3(C)[C@@H]([C@H](C)CN4CCC[C@H]4C(C)(C)OC)CC[C@@H]23)C[C@@H](O)C[C@@H]1O [Compound F016, (1R,3S,Z)-5-(2-((1R,3aS,7aR,E)-1-((S)-1-((S)-2-(2-methoxypropan-2-yl)pyrrolidin-1-yl)propan-2-yl)-7a-methyloctahydro-4H-inden-4-ylidene)ethylidene)-4-methylenecyclohexane-1,3-diol]
Mean (number of MBP-positive cells/number of Hoechst33342-positive cells) (Test 8): 0.32

C[C@H](CN1CCCC[C@@H]1C)[C@H]1CC[C@H]2/C(=C/C=C3C[C@@H](O)C[C@H](O)C3)CCC[C@]12C [Compound G001, (1R,3R)-5-(2-((1R,3aS,7aR,E)-7a-methyl-1-((S)-1-((S)-2-methylpiperidin-1-yl)propan-2-yl)octahydro-4H-inden-4-ylidene)ethylidene)cyclohexane-1,3-diol]
Mean (number of MBP-positive cells/number of Hoechst33342-positive cells) (Test 3): 0.34

C[C@H](CN1CCCC[C@H]1C)[C@H]1CC[C@H]2/C(=C/C=C3C[C@@H](O)C[C@H](O)C3)CCC[C@]12C [Compound G002, (1R,3R)-5-(2-((1R,3aS,7aR,E)-7a-methyl-1-((S)-1-((R)-2-methylpiperidin-1-yl)propan-2-yl)octahydro-4H-inden-4-ylidene)ethylidene)cyclohexane-1,3-diol]
Mean (number of MBP-positive cells/number of Hoechst33342-positive cells) (Test 3): 0.33
